Reference: US8748428B2, “Use of a PKC inhibitor” (Novartis AG, priority 2010, dated 2014)

Key:
Format in all cases: cell-based
[1] = test system: IL-6 secretion in TMD8 cells; test: IL-6 secretion (Quantikine ELISA); conditions: Homo sapiens; TMD8, ELISA of supernatant, 48 hours
Procedure: (§1) The fact that IL-6 is secreted from cells allowed for monitoring of IL-6 levels in cell supernatants. IL-6 secretion was determined by Quantikine ELISA using supernatant from treated cells. Cells were washed and plated at 100,000 cells/well in 100 ul in fresh media in round-bottom 96-well plates (Corning, #3358). The cells were then treated with DMSO or inhibitors at concentrations ranging from 80 nM to 10 uM (2-fold dilutions), and incubated at 37° C. for 48 hours. Then the conditioned media was transferred to v-bottom 96-well plates (Nunc, #12565436). The level of IL-6 secretion was determined by the Quantkine colorimetric ELISA kit from (R & D Systems, #D6050), according to the manufacturer's instructions. For the IL-6 ELISA, the conditioned media was diluted 1:2 with fresh media (except ion: the HBL1 conditioned media was not diluted, it was used 1:1). In FIG. 2, IL-6 secretion for each dose is expressed as a percentage of IL-6 secretion from cells treated with DMSO.

[2] = test system: IL-6 secretion in HBL1 cells; test: IL-6 secretion (Quantikine ELISA); conditions: HBL1, ELISA of supernatant, 48 hours
Procedure: as §1

U2392 cells = test: Growth inhibition, CellTiter-Glo, 5 days; conditions: 120 h; ABC DLBCL, TAK1 mutation; 5 days treatment; read-out: growth inhibitory IC50, U2392
From the text: (§2) Two pharmacological PKC inhibitors: (i) the pan-PKC inhibitor, Sotrastaurin, also known as AEB071, and (ii) the PKCa/b-selective compound, 3-[2-chloro-7-[(dimethylamino)methyl]-1-naphthalenyl]-4-[7-[2-(2-methoxyethoxy)ethoxy]-1H-indol-3-yl]-1H-pyrrole-2,5-dione (referred to herein as “Compound B”), were used to evaluate the proliferation of several diffuse large B cell lymphoma (DLBCL) lines. The IKKb-selective inhibitors N-(6-chloro-7-methoxy-9H-β-carbolin-8-yl)-2-methylnicotinamide (referred to herein as “MLN120B”) and N-[(2R,6R)-2,6-dimethyl-4-piperidinyl]-4-(7-fluoro-1H-indol-3-yl)-2-pyrimidinamine (referred to herein as “Compound A”) were used as control compounds. ABC DLBCL cell lines (OCI-LY3, OCI-LY10, HBL1, U2932, TMD8, Su-DHL2) and GC DLBCL cell lines (Su-DHL4, DB, K-422) were treated for 5 days with PKC inhibitors (A) Sotrastaurin (AEB071) or (B) Compound B; IKKb inhibitors (C) MLN120B or (D) Compound A. Cells were plated in 96-well plates (Corning, #3358) at 5000 cells/well in 100 μL and treated with DMSO or inhibitors at concentrations ranging from 160 nM to 20 μM (2-fold dilutions). Following 5 days of treatment, cells were lysed with CellTiter-Glo® Luminescent Cell Viability Assay reagent (Promega, G7573), lysates were transferred to opaque 96-well plates (Corning, #3971), and luminescence signal was read using the Envision. Percent growth was calculated relative to median DMSO signal.
(§3) While all ABC DLBCL cell lines were sensitive to IKK inhibitors, their response to PKC inhibitors varied strongly (Table 1A below). The cell lines that are insensitive to PKC inhibitors, OCI-Ly3 and Su-DHL2, have reported mutations in CARD11 and A20, respectively. […] The fact that these oncogenic lesions are thought to function downstream of PKCβ in CBM-NFkB signaling provides a molecular rationale for their insensitivity. […] See, Compagno, M., et al, “Mutations of multiple genes cause deregulation of NF-κB in diffuse large B-cell lymphoma” Nature, 459 (7247), 717-722 (2009)). […] Tables 1A and 1B below show the growth inhibitory IC50 values, which were determined by measuring ATP concentration (Cell Titer Glo), for the indicated compounds in the indicated cell lines. IC50 values were determined as the concentration of compound that leads to 50% reduction of cell growth.

OCI-Ly3 cells = test: Growth inhibition, CellTiter-Glo, 5 days; conditions: Homo sapiens, OCI-Ly3, 120 h; ABC DLBCL, CARD11 mutation; 5 days treatment; read-out: growth inhibitory IC50, OCI-Ly3
From the text: as §2, §3

K422 cells = test: Growth inhibition, CellTiter-Glo, 5 days; conditions: 120 h; GC DLBCL, no NFkB mutation; 5 days treatment; read-out: growth inhibitory IC50, K422
From the text: as §2, §3

HBL1 cells = test: Growth inhibition, CellTiter-Glo, 5 days; conditions: HBL1, 120 h; ABC DLBCL, CD79B mutation; 5 days treatment; read-out: growth inhibitory IC50, HBL1
From the text: as §2, §3

TMD8 cells = test: Growth inhibition, CellTiter-Glo, 5 days; conditions: Homo sapiens, TMD8, 120 h; ABC DLBCL, CD79B mutation; 5 days treatment; read-out: growth inhibitory IC50, TMD8
From the text: as §2, §3

Su-DHL2 cells = test: Growth inhibition, CellTiter-Glo, 5 days; conditions: Homo sapiens, SU-DHL-2, 120 h; ABC DLBCL, A20 mutation; 5 days treatment; read-out: growth inhibitory IC50, Su-DHL2
From the text: as §2, §3

Su-DHL4 cells = test: Growth inhibition, CellTiter-Glo, 5 days; conditions: Homo sapiens, SU-DHL-4, 120 h; GC DLBCL, no NFkB mutation; 5 days treatment; read-out: growth inhibitory IC50, Su-DHL4
From the text: as §2, §3

OCI-Ly10 cells = test: Growth inhibition, CellTiter-Glo, 5 days; conditions: Homo sapiens, OCI-Ly10, 120 h; ABC DLBCL, CD79A mutation; 5 days treatment; read-out: growth inhibitory IC50, OCI-Ly10
From the text: as §2, §3

DB cells = test: Growth inhibition, CellTiter-Glo, 5 days; conditions: Homo sapiens, 120 h, GC DLBCL, no NFkB mutation, 5 days treatment, read-out: growth inhibitory IC50, DB
From the text: as §2, §3

IC50 [1]: < 200 nM | IC50 [2]: < 200 nM | IC50 (OCI-Ly3 cells): > 20000 nM | IC50 (Su-DHL2 cells): > 20000 nM | IC50 (Su-DHL4 cells): > 20000 nM | IC50 (OCI-Ly10 cells): 1300 nM
Compound: CN1CCN(c2nc(C3=C(c4c[nH]c5ccccc45)C(=O)NC3=O)c3ccccc3n2)CC1 [AEB071, 3-(1H-Indol-3-yl)-4-[2-(4-methylpiperazin-1-yl)quinazolin-4-yl]-1H-pyrrole-2,5-dione]
IC50 (U2392 cells): 5000 nM | IC50 (K422 cells): > 20000 nM | IC50 (HBL1 cells): 500 nM | IC50 (TMD8 cells): 200 nM | IC50 (DB cells): > 20000 nM
